From US20250134855A1, “CO[…] AND METHODS OF USING SAME” (LYKOS THERAPEUTICS, INC., priority 2022, published 2025)
Read-outs that look alike come from different tables or passages of the source.

Assays:
OATP1B3 [1] = target: T1, OATP1B3 (Homo sapiens, UniProt Q9NPD5); test: Transporter inhibition, OATP1B3
OATP1B1 = OATP1B1 (Homo sapiens, UniProt Q9Y6L6); test: Transporter inhibition, OATP1B1
OATP1B3 [2] = target: T1, OATP1B3; test: Transporter substrate assessment, OATP1B3
[3] = Study MPKF: plasma pharmacokinetics of MDMA and MDA, single 120 mg MDMA·HCl, fasted/fed; format: in vivo, human; conditions: for Tmax: median; for concentration at 0.5 h: .5 h
Source text: The MPKF was a Phase 1, open-label, randomized sequence, multi-dose, 2-period crossover food effect study in 16 healthy individuals. The MPKF study evaluated plasma concentrations of both MDMA and the active metabolite 3,4-methylenedioxyamphetamine (MDA). Summary PK Parameters of the preliminary data was based on interim analysis are presented in Table 12 Table 12 Table 12, and Table 13 Table 13 Table 13 for MDMA and MDA, respectively.
Participants were randomized to receive 1 of 2 conditions before the other: • Fasted Treatment: at least 10 hours of fasting followed by administration of MDMA HCl with 240 mL water. • Fed Treatment: at least 10 hours of fasting followed by a high-fat (approximately 50% of total caloric content of the meal) and high-calorie (approximately 800 to 1000 calories) meal was consumed within 30 minutes prior to IMP administration.
Participants remained at the clinical research unit (CRU) for each Dosing Session from the time of check-in on the night before dosing until discharge 48 hours after dosing for collection of serial blood samples for PK analysis and safety monitoring. IMP was administered on Day 1 following the treatment sequence to which the participant was randomized. An additional outpatient visit occurred 72 hours after dosing to collect a final PK sample, commensurate with the expected PK profiles of MDMA and MDA. Safety assessments were also performed at this visit.
The washout period between Dosing Sessions was at least 14 days. If a participant experienced emesis within 4 hours of administration, they were to be withdrawn from the study and replaced with a new participant. An End of Study Visit was performed 2 to 10 days after the completion of the final Dosing Session 72-hour follow-up. An informal interim analysis was planned to be conducted after at least 5 participants completed at least 1 Dosing Session to examine PK variability.
The API was a white crystalline powder of pharmaceutical quality, made according to current Good Manufacturing Practices (cGMP) for human use.
Participants: Sixteen healthy individuals were recruited for the study.
Intervention: The study was conducted as a Phase 1, open-label, randomized sequence, multi-dose, 2-period crossover food effect study. Each participant received multiple doses of MDMA, and plasma concentrations of both MDMA and the active metabolite MDA were measured.
Sample Collection: Blood samples were collected at various time points up to 72 hours after dosing. The samples were analyzed using validated liquid chromatography-tandem mass spectrometry (LC-MS/MS) methods.
Data Analysis: The summary PK parameters were presented in Table 12 for MDMA and Table 13 for MDA. The data were analyzed using descriptive statistics, and the mean and standard deviation were calculated. The results were compared between the two periods and analyzed for food effects. Statistical analyses were performed using appropriate methods, such as analysis of variance (ANOVA) and paired t-tests. A p-value of less than 0.05 was considered statistically significant.

[4] = test system: bacterial reverse mutation assay (Ames test); test: In vitro bacterial reverse mutation assay (Ames test); format: cell-based; conditions: with or without metabolic activation
Source text: MDMA was not mutagenic with or without metabolic activation in the in vitro bacterial reverse mutation assay (Ames test).

[5] = Fasted N = 15, 120 mg MDMA·HCl, preliminary
[6] = Fasted N = 15, 120 mg MDMA·HCl, preliminary, arithmetic mean
[7] = Fed N = 11, 120 mg MDMA·HCl, preliminary
[8] = Fed N = 11, 120 mg MDMA·HCl, preliminary, arithmetic mean
[9] = human, plasma, oral, 120 mg, fasted treatment group, read-out: PK plasma concentration, Geom. Mean
[10] = human, plasma, oral, 120 mg, fasted treatment group, read-out: PK plasma concentration, Mean
[11] = human, plasma, oral, 120 mg, fasted treatment group, read-out: PK plasma concentration, Median
[12] = human, plasma, oral, 120 mg, fed treatment group, read-out: PK plasma concentration, Geom. Mean
[13] = human, plasma, oral, 120 mg, fed treatment group, read-out: PK plasma concentration, Mean
[14] = human, plasma, oral, 120 mg, fed treatment group, read-out: PK plasma concentration, Median

T1 sequence (Q9NPD5 whole entry): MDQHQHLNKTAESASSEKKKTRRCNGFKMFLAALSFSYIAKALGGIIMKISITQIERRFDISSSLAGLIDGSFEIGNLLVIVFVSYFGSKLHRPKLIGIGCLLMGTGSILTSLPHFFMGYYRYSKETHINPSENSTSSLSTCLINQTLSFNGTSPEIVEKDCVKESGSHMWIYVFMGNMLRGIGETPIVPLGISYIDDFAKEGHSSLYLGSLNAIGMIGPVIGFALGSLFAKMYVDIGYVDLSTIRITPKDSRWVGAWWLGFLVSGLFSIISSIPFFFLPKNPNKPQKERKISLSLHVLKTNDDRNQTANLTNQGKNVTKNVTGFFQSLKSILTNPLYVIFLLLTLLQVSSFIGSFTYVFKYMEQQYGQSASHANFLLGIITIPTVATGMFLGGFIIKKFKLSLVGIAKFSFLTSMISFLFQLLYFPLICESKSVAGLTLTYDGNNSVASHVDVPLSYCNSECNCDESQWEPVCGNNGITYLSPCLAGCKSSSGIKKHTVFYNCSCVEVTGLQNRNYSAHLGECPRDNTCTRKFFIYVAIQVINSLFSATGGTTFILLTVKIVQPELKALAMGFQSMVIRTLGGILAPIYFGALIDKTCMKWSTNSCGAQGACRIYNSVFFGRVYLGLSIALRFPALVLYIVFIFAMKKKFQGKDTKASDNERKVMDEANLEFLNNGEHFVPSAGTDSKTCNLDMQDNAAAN
Chain of OATP1B1 (Q9Y6L6 whole entry): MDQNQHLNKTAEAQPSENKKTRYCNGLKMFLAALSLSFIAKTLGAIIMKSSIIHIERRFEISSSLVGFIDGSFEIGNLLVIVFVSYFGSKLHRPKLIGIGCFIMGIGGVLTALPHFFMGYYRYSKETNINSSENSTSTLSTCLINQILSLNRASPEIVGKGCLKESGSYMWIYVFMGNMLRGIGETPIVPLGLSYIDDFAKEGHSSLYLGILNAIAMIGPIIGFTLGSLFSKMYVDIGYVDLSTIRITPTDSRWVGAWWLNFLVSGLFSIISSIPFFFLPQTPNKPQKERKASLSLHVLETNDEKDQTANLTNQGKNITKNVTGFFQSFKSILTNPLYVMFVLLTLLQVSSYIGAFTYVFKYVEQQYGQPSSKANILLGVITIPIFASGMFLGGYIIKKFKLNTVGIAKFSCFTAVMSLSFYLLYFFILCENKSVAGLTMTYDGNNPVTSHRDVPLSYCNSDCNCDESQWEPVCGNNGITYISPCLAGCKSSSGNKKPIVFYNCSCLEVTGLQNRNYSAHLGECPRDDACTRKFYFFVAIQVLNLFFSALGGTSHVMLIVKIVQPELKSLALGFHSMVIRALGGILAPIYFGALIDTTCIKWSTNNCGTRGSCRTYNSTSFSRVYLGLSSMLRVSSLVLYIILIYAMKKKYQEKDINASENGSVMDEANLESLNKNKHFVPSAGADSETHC

## CNC(C)Cc1ccc2c(c1)OCO2 (stereo not drawn) [MDMA, 3,4-methylenedioxymethamphetamine]
OATP1B3 [1]
  inhibition of OATP1B3: not an inhibitor
OATP1B1
  inhibition of OATP1B1: not an inhibitor
OATP1B3 [2]
  substrate of OATP1B3: not a substrate
[3]; 8 intermediate, 8 normal metabolizers
  higher plasma PK values in intermediate relative to normal CYP2D6 metabolizers: approximately 26%
[3]; Fasted
  Cmax, Geometric LSM: 238 ng/mL
[3]; [5]
  Tlag: 0.6 h
  Tmax: 2 h
[3]; [6]
  CL/F: 29.5 L/h
  Cmax: 238 ng/mL
[3]; Fed
  AUC0-inf, Geometric LSM: 3357 ng·h/mL
  Cmax, Geometric LSM: 229 ng/mL
[3]; [7]
  Tlag: 0.7 h
  Tmax: 4 h
[3]; [8]
  AUC(0-inf): 3318 ng·h/mL
  CL/F: 30.1 L/h
  Cmax: 227 ng/mL
[3]; both sexes, human, plasma, oral, single 120 mg dose of MDMA·HCl, fasting healthy males and females, read-out: Cmax
  Cmax: 261 ng/mL
[3]; both sexes, human, plasma, po, single 120 mg dose of MDMA·HCl, fasting healthy males and females, read-out: Cmax
  Cmax: 261 ng/mL
[3]; fed vs fasted
  AUC0-72, Geometric Mean Ratio: 0.99
  AUC0-inf, Geometric Mean Ratio: 0.99
  AUC0-t, Geometric Mean Ratio: 1.00
  Cmax, Geometric Mean Ratio: 0.97
[3]; higher than dose proportional increases, auto-inhibition of CYP2D6
  dose proportionality of pharmacokinetics: non-linear
[3]; human, plasma, oral, 120 mg, Fasted, read-out: AUC0-72, Geometric LSM
  AUC(0-t): 3360 ng·h/mL
[3]; human, plasma, oral, 120 mg, Fasted, read-out: AUC0-inf, Geometric LSM
  AUC(0-inf): 3380 ng·h/mL
[3]; human, plasma, oral, 120 mg, Fasted, read-out: AUC0-t, Geometric LSM
  AUC(0-t): 3120 ng·h/mL
[3]; human, plasma, oral, 120 mg, Fed, read-out: AUC0-72, Geometric LSM
  AUC(0-t): 3340 ng·h/mL
[3]; human, plasma, oral, 120 mg, Fed, read-out: AUC0-t, Geometric LSM
  AUC(0-t): 3110 ng·h/mL
[3]; human, plasma, oral, 120 mg, both fed and fasted groups, read-out: mean elimination half-life
  half-life: 8 to 9 h
[3]; [9]
  concentration at 1 h: 111 ng/mL
  concentration at 2 h: 186 ng/mL
  concentration at 4 h: 219 ng/mL
  concentration at 6 h: 188 ng/mL
  concentration at 8 h: 160 ng/mL
  concentration at 12 h: 111 ng/mL
  concentration at 24 h: 44.2 ng/mL
  concentration at 48 h: 12.3 ng/mL
  concentration at 72 h: 6.25 ng/mL
  concentration at 0.5 h: 39.3 ng/mL
[3]; [10]
  concentration at 1 h: 111 ng/mL
  concentration at 2 h: 210 ng/mL
  concentration at 4 h: 225 ng/mL
  concentration at 6 h: 193 ng/mL
  concentration at 8 h: 166 ng/mL
  concentration at 12 h: 118 ng/mL
  concentration at 24 h: 50.1 ng/mL
  concentration at 48 h: 7.61 ng/mL
  concentration at 72 h: 0.417 ng/mL
  concentration at 0.5 h: 23.1 ng/mL
[3]; [11]
  concentration at 1 h: 124 ng/mL
  concentration at 2 h: 211 ng/mL
  concentration at 4 h: 218 ng/mL
  concentration at 6 h: 199 ng/mL
  concentration at 8 h: 165 ng/mL
  concentration at 12 h: 120 ng/mL
  concentration at 24 h: 53.6 ng/mL
  concentration at 48 h: 6.5 ng/mL
  concentration at 72 h: 0 ng/mL
  concentration at 0.5 h: 0 ng/mL
[3]; [12]
  concentration at 1 h: 46.2 ng/mL
  concentration at 2 h: 118 ng/mL
  concentration at 4 h: 222 ng/mL
  concentration at 6 h: 208 ng/mL
  concentration at 8 h: 173 ng/mL
  concentration at 12 h: 120 ng/mL
  concentration at 24 h: 42 ng/mL
  concentration at 48 h: 14.2 ng/mL
  concentration at 72 h: 11.3 ng/mL
  concentration at 0.5 h: 18.5 ng/mL
[3]; [13]
  concentration at 1 h: 59.8 ng/mL
  concentration at 2 h: 129 ng/mL
  concentration at 4 h: 228 ng/mL
  concentration at 6 h: 215 ng/mL
  concentration at 8 h: 181 ng/mL
  concentration at 12 h: 129 ng/mL
  concentration at 24 h: 50.5 ng/mL
  concentration at 48 h: 7.41 ng/mL
  concentration at 72 h: 0.81 ng/mL
  concentration at 0.5 h: 10.2 ng/mL
[3]; [14]
  concentration at 1 h: 47.4 ng/mL
  concentration at 2 h: 132 ng/mL
  concentration at 4 h: 224 ng/mL
  concentration at 6 h: 208 ng/mL
  concentration at 8 h: 180 ng/mL
  concentration at 12 h: 132 ng/mL
  concentration at 24 h: 41.4 ng/mL
  concentration at 48 h: 0 ng/mL
  concentration at 72 h: 0 ng/mL
  concentration at 0.5 h: 4.12 ng/mL
[3]; human, plasma, po, 120 mg, Fasted N = 15, 120 mg MDMA·HCl, preliminary, arithmetic mean
  Vd/F: 372 L
[3]; human, plasma, po, 120 mg, Fasted N = 15, 120 mg MDMA·HCl, preliminary, arithmetic mean, read-out: AUC0-72
  AUC(0-t): 3370 ng·h/mL
[3]; human, plasma, po, 120 mg, Fasted N = 15, 120 mg MDMA·HCl, preliminary, arithmetic mean, read-out: AUC0-inf
  AUC(0-inf): 3390 ng·h/mL
[3]; human, plasma, po, 120 mg, Fasted N = 15, 120 mg MDMA·HCl, preliminary, arithmetic mean, read-out: AUC0-t
  AUC(0-t): 3120 ng·h/mL
[3]; human, plasma, po, 120 mg, Fasted N = 15, 120 mg MDMA·HCl, preliminary, arithmetic mean, read-out: t1/2 (converted)
  half-life: 8.7 h
[3]; human, plasma, po, 120 mg, Fed N = 11, 120 mg MDMA·HCl, preliminary, arithmetic mean
  Vd/F: 349 L
[3]; human, plasma, po, 120 mg, Fed N = 11, 120 mg MDMA·HCl, preliminary, arithmetic mean, read-out: AUC0-72
  AUC(0-t): 3300 ng·h/mL
[3]; human, plasma, po, 120 mg, Fed N = 11, 120 mg MDMA·HCl, preliminary, arithmetic mean, read-out: AUC0-t
  AUC(0-t): 3060 ng·h/mL
[3]; human, plasma, po, 120 mg, Fed N = 11, 120 mg MDMA·HCl, preliminary, arithmetic mean, read-out: t1/2 (converted)
  half-life: 8 h
[3]; human, plasma, po, 120 mg, single 120 mg dose of MDMA·HCl, fasting, read-out: AUC0-inf
  AUC(0-inf): 3890 ng·h/mL
[3]; human, plasma, po, 120 mg, single 120 mg dose of MDMA·HCl, fasting, read-out: t1/2 (converted)
  half-life: 9.1 h
[3]; human, plasma, po, single 120 mg dose of MDMA·HCl, fasting, read-out: Tmax
  Tmax: ≤ 2 h
[3]; single 120 mg MDMA HCl
  plasma concentrations and PK parameters (Cmax, AUC0-t, AUC0-inf, AUC0-72, AUC% ext), fed vs fasted: not significantly different
[3]; single 120 mg dose of MDMA·HCl, fasting
  Tmax: 2.00 h
[3]; single 120 mg dose, estimated from Cmax 261 ng/ml and 51% protein binding
  unbound maximum concentration (Cmax): 660 nM
[4]
  mutagenicity, Ames test: not mutagenic
